Measured values published in US7838238B2, “Method for screening anti-HIV Drugs and a diagnostic method of AIDS” (CellFree Sciences Co., Ltd., priority 2008, dated 2010).
Peptide text beside a SMILES is read from it. * marks the point of attachment. Cbz = O=C(OCc1ccccc1)*

Test system: intracellular Gag in SOCS1-siRNA HeLa cells
Assay: Immunoblotting of intracellular Gag-GFP in SOCS1-siRNA HeLa cells treated with NH4Cl or MG132
Assay type: cell-based, human
Procedure: (F) HeLa cells were transfected with Cag-GFP and cotransfected with either control-siRNA or SOCS1-siRNA I. After 36 hours, the cells were treated with a mock solution, 10 mM NH4Cl or 10 μM MG132 for another 16 hours. Cell were then harvested and subjected to immunoblotting analysis with anti-GCF or anti-β-actin antibodies.

| SMILES | level of intracellular Gag (10 mM NH4Cl, 16 hours) | level of intracellular Gag (10 μM MG132, 16 hours) |
| --- | --- | --- |
| Cl.N [NH4Cl] | significantly increased | – |
| CC(C)C[C@@H](C=O)NC(=O)[C@H](CC(C)C)NC(=O)[C@H](CC(C)C)NC(=O)OCc1ccccc1 [MG132] (Cbz-Leu-Leu-Leu-aldehyde) | – | not |
